Assay results published in patent US11702404B2, “GLP-1R modulating compounds” (priority 2019, dated 2023).

Target: GLP-1R (Homo sapiens, UniProt P43220)
Experiment: GLP-1R activation: cAMP increase in CHO cells stably expressing GLP-1R
Assay type: cell-based
Conditions: EC50 (nM)

GLP-1R, sequence (P43220 24-463): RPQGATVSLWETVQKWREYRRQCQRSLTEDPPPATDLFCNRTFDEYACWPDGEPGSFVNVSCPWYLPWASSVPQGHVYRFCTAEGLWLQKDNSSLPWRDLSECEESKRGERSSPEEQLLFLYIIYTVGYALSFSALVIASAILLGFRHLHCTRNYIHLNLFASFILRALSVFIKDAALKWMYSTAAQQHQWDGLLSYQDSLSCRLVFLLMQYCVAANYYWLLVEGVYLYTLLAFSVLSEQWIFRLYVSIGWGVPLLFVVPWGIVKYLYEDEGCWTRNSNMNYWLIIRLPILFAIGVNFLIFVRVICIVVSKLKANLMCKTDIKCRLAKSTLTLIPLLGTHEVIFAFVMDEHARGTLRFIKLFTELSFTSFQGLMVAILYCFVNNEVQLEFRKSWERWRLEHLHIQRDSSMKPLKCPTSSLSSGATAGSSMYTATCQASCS

SMILES | EC50 [nM]
C[C@H](O)Cn1c(Cc2cc(F)c(-c3cccc(OCc4ccc(C#N)cc4F)n3)cc2F)nc2ccc(C(=O)O)cc21 [Example 723] | 5.19
C[C@@H](O)Cn1c(Cc2cc(F)c(-c3cccc(OCc4ccc(C#N)cc4F)n3)cc2F)nc2ccc(C(=O)O)cc21 [Example 724] | 15.1

Same assay, conditions: cAMP increase, CHO cells stably expressing GLP-1R, 10 point dose response, 30 minutes incubation; read-out: EC50

SMILES | EC50 [nM]
COC[C@@H](c1ccccc1)n1c(Cc2cc(F)c(-c3cccc(OCc4ccc(C#N)cc4F)n3)cc2F)nc2ccc(C(=O)O)cc21 [Example 716] | 2740
COC[C@H](c1ccccc1)n1c(Cc2cc(F)c(-c3cccc(OCc4ccc(C#N)cc4F)n3)cc2F)nc2ccc(C(=O)O)cc21 [Example 717] | 41.5
N#Cc1ccc(COc2cccc(-c3cc(F)c(Cc4nc5ccc(C(=O)O)cc5n4[C@@H]4C[C@H]4C(F)F)cc3F)n2)c(F)c1 [Example 720] | 27.8
CO[C@@H]1CCCC[C@@H]1n1c(Cc2cc(F)c(-c3cccc(OCc4ccc(C#N)cc4F)n3)cc2F)nc2ccc(C(=O)O)cc21 [Example 725] | 3.68
COC[C@@H](CF)n1c(Cc2cc(F)c(-c3cccc(OCc4ccc(C#N)cc4F)n3)cc2F)nc2ccc(C(=O)O)cc21 [Example 726] | 7.26
N#Cc1ccc(COc2cccc(-c3cc(F)c(Cc4nc5ccc(C(=O)O)cc5n4C4CC5(COC5)C4)cc3F)n2)c(F)c1 [Example 728] | 93.6
COC[C@H]1C[C@H](n2c(Cc3cc(F)c(-c4cccc(OCc5ccc(C#N)cc5F)n4)cc3F)nc3ccc(C(=O)O)cc32)C1 [Example 731] | 290
COCC(COC)n1c(Cc2cc(F)c(-c3cccc(OCc4ccc(C#N)cc4F)n3)cc2F)nc2ccc(C(=O)O)cc21 [Example 732] | 169
COC[C@H]1C[C@@H](n2c(Cc3cc(F)c(-c4cccc(OCc5ccc(C#N)cc5F)n4)cc3F)nc3ccc(C(=O)O)cc32)C1 [Example 734] | 168

Results, then the molecule that gave them:

EC50 [nM] | SMILES
4.01 | COC(Cn1c(Cc2cc(F)c(-c3cccc(OCc4ccc(C#N)cc4F)n3)cc2F)nc2ccc(C(=O)O)cc21)C(F)(F)F (stereo not shown) [Example 715]
0.05 | N#CCC1(Cn2c(Cc3cc(F)c(-c4cccc(OCc5ccc(C(F)F)cc5F)n4)cc3F)nc3ccc(C(=O)O)cc32)CC1 [Example 718]
0.37 | O=C(O)c1ccc2nc(Cc3cc(F)c(-c4cccc(OCc5ccc(C(F)F)cc5F)n4)cc3F)n(CC3(CF)CC3)c2c1 [Example 719]
1.31 | CC(C)(Cn1c(Cc2cc(F)c(-c3cccc(OCc4ccc(C#N)cc4F)n3)cc2F)nc2ccc(C(=O)O)cc21)OC(F)F [Example 721]
46.3 | COC[C@H](CF)n1c(Cc2cc(F)c(-c3cccc(OCc4ccc(C#N)cc4F)n3)cc2F)nc2ccc(C(=O)O)cc21 [Example 727]
1.03 | N#Cc1ccc(COc2cccc(-c3cc(F)c(Cc4nc5ccc(C(=O)O)cc5n4CC4(F)CC4)cc3F)n2)c(F)c1 [Example 729]
0.98 | N#Cc1ccc(COc2cccc(-c3cc(F)c(Cc4nc5ccc(C(=O)O)cc5n4CC4(COC(F)F)CC4)cc3F)n2)c(F)c1 [Example 730]
2.47 | N#Cc1ccc(COc2cccc(-c3cc(F)c(Cc4nc5ccc(C(=O)O)cc5n4CC4(O)CC4)cc3F)n2)c(F)c1 [Example 733]
1.89 | N#Cc1ccc(COc2cccc(-c3cc(F)c(Cc4nc5ccc(C(=O)O)cc5n4CC45CC(C4)C(C(F)(F)F)O5)cc3F)n2)c(F)c1 (stereo not shown) [Example 737]
1.87 | N#Cc1ccc(COc2cccc(-c3cc(F)c(Cc4nc5ccc(C(=O)O)cc5n4CC45CCC(CO4)C5)cc3F)n2)c(F)c1 (stereo not shown) [Example 738]
0.74 | COCCC1(Cn2c(Cc3cc(F)c(-c4cccc(OCc5ccc(C#N)cc5F)n4)cc3F)nc3ccc(C(=O)O)cc32)CC1 [Example 739]
54.8 | N#Cc1ccc(COc2cccc(-c3cc(F)c(Cc4nc5ccc(C(=O)O)cc5n4CC45CCN(CC4)C5)cc3F)n2)c(F)c1 [Example 742]

System: not listed separately
Experiment: Microsomal stability, human liver microsomes (predicted hepatic clearance)
Conditions: predicted from in vitro microsomal stability data

SMILES | Predicted Hepatic Clearance (Pred. Cl.) [mL/min/kg]
COC[C@@H](c1ccccc1)n1c(Cc2cc(F)c(-c3cccc(OCc4ccc(C#N)cc4F)n3)cc2F)nc2ccc(C(=O)O)cc21 [Example 716] | 2.17
COC[C@H](c1ccccc1)n1c(Cc2cc(F)c(-c3cccc(OCc4ccc(C#N)cc4F)n3)cc2F)nc2ccc(C(=O)O)cc21 [Example 717] | 7.5
N#Cc1ccc(COc2cccc(-c3cc(F)c(Cc4nc5ccc(C(=O)O)cc5n4[C@@H]4C[C@H]4C(F)F)cc3F)n2)c(F)c1 [Example 720] | 5.33
C[C@H](O)Cn1c(Cc2cc(F)c(-c3cccc(OCc4ccc(C#N)cc4F)n3)cc2F)nc2ccc(C(=O)O)cc21 [Example 723] | 3.5
C[C@@H](O)Cn1c(Cc2cc(F)c(-c3cccc(OCc4ccc(C#N)cc4F)n3)cc2F)nc2ccc(C(=O)O)cc21 [Example 724] | 6.67
CO[C@@H]1CCCC[C@@H]1n1c(Cc2cc(F)c(-c3cccc(OCc4ccc(C#N)cc4F)n3)cc2F)nc2ccc(C(=O)O)cc21 [Example 725] | 9.5
COC[C@@H](CF)n1c(Cc2cc(F)c(-c3cccc(OCc4ccc(C#N)cc4F)n3)cc2F)nc2ccc(C(=O)O)cc21 [Example 726] | 5.5
N#Cc1ccc(COc2cccc(-c3cc(F)c(Cc4nc5ccc(C(=O)O)cc5n4C4CC5(COC5)C4)cc3F)n2)c(F)c1 [Example 728] | 8.33
COC[C@H]1C[C@H](n2c(Cc3cc(F)c(-c4cccc(OCc5ccc(C#N)cc5F)n4)cc3F)nc3ccc(C(=O)O)cc32)C1 [Example 731] | 10.3
COCC(COC)n1c(Cc2cc(F)c(-c3cccc(OCc4ccc(C#N)cc4F)n3)cc2F)nc2ccc(C(=O)O)cc21 [Example 732] | 8.17
COC[C@H]1C[C@@H](n2c(Cc3cc(F)c(-c4cccc(OCc5ccc(C#N)cc5F)n4)cc3F)nc3ccc(C(=O)O)cc32)C1 [Example 734] | 8

Next, values leading:

Predicted Hepatic Clearance (Pred. Cl.) [mL/min/kg] | SMILES
2 | COC(Cn1c(Cc2cc(F)c(-c3cccc(OCc4ccc(C#N)cc4F)n3)cc2F)nc2ccc(C(=O)O)cc21)C(F)(F)F (stereo not shown) [Example 715]
1.83 | N#CCC1(Cn2c(Cc3cc(F)c(-c4cccc(OCc5ccc(C(F)F)cc5F)n4)cc3F)nc3ccc(C(=O)O)cc32)CC1 [Example 718]
1.83 | O=C(O)c1ccc2nc(Cc3cc(F)c(-c4cccc(OCc5ccc(C(F)F)cc5F)n4)cc3F)n(CC3(CF)CC3)c2c1 [Example 719]
7.83 | CC(C)(Cn1c(Cc2cc(F)c(-c3cccc(OCc4ccc(C#N)cc4F)n3)cc2F)nc2ccc(C(=O)O)cc21)OC(F)F [Example 721]
5.5 | COC[C@H](CF)n1c(Cc2cc(F)c(-c3cccc(OCc4ccc(C#N)cc4F)n3)cc2F)nc2ccc(C(=O)O)cc21 [Example 727]
1.83 | N#Cc1ccc(COc2cccc(-c3cc(F)c(Cc4nc5ccc(C(=O)O)cc5n4CC4(F)CC4)cc3F)n2)c(F)c1 [Example 729]
1.83 | N#Cc1ccc(COc2cccc(-c3cc(F)c(Cc4nc5ccc(C(=O)O)cc5n4CC4(COC(F)F)CC4)cc3F)n2)c(F)c1 [Example 730]
3.83 | N#Cc1ccc(COc2cccc(-c3cc(F)c(Cc4nc5ccc(C(=O)O)cc5n4CC4(O)CC4)cc3F)n2)c(F)c1 [Example 733]
1.83 | N#Cc1ccc(COc2cccc(-c3cc(F)c(Cc4nc5ccc(C(=O)O)cc5n4CC45CC(C4)C(C(F)(F)F)O5)cc3F)n2)c(F)c1 (stereo not shown) [Example 737]
9.33 | N#Cc1ccc(COc2cccc(-c3cc(F)c(Cc4nc5ccc(C(=O)O)cc5n4CC45CCC(CO4)C5)cc3F)n2)c(F)c1 (stereo not shown) [Example 738]
1.83 | COCCC1(Cn2c(Cc3cc(F)c(-c4cccc(OCc5ccc(C#N)cc5F)n4)cc3F)nc3ccc(C(=O)O)cc32)CC1 [Example 739]
1.83 | N#Cc1ccc(COc2cccc(-c3cc(F)c(Cc4nc5ccc(C(=O)O)cc5n4CC45CCN(CC4)C5)cc3F)n2)c(F)c1 [Example 742]
